According to patent publication US9290511B2, “Thieno-pyrimidines, useful as potassium channel inhibitors” (XENTION LIMITED, priority 2011, dated 2016):
Blank lines part the entries; values can stand above or below the compound they belong to.

Columns and labels:
Kir3.1/3.4 [1] = target: T1, Kir3.1/3.4 (Rattus norvegicus, UniProt P48548+P63251); assay: Kir3.1/3.4 Q-patch Method (automated patch clamp, Sophion Q-patch); assay type: cell-based; settings: HEK293 cells stably-expressing Kir3.1/3.4; current at -120 mV; QPatch-16 or QPatch-48
T1 construct: expressed in transfected cells
T1 sequence (P63251 1-501): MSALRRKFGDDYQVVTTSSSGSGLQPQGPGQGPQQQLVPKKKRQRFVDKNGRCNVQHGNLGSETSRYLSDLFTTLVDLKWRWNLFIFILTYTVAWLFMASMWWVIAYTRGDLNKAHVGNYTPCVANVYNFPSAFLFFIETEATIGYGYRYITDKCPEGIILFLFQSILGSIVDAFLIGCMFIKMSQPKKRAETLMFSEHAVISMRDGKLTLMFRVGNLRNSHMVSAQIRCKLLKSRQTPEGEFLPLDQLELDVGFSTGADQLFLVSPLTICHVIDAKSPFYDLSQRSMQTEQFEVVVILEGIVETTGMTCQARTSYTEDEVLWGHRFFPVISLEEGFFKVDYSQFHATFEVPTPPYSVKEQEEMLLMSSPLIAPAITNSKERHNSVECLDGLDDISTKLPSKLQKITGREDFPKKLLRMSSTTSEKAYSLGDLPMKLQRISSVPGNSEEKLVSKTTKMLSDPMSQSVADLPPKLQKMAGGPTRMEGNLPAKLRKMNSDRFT
T1 sequence (P48548 1-419): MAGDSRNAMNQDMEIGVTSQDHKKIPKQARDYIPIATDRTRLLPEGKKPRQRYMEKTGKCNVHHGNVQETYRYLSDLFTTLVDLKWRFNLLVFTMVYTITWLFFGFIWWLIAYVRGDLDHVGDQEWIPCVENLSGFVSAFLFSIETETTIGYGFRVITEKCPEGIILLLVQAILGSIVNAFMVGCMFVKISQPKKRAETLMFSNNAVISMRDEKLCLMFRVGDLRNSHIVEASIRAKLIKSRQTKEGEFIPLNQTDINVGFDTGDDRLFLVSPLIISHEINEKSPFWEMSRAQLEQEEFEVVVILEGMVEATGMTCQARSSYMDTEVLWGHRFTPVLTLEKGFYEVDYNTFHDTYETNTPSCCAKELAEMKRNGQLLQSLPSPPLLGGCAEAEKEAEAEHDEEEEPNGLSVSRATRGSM
Method: For automated patch-clamp studies using the Sophion Q-patch, accumulative concentration-responses experiments were conducted to determine compound activity against the ion channel target. Voltage-clamp experiments were performed using HEK293 cells stably-expressing Kir3.1/3.4 using either a QPatch-16 or QPatch-48 (Sophion Bioscience A/S). A voltage waveform (VHold−20 mV, step to 60 mV for 100 ms, ramp to −120 mV over 500 ms, hold at −120 mV for 100 ms before returning to VHold) was repeatedly applied to the cells under voltage-clamp at a frequency of 0.1 Hz to elicit Kir3.1/3.4 currents. Mean current at −120 mV was measured in the absence (Icontrol) and presence of drug (IDrug). Assessment of passive leak was performed by removal of external potassium (IZero). Leak current was subtracted from control and drug recordings. Current inhibition (%) was calculated as {1−[(IDrug−IZero)/(IControl−IZero)]}*100. Data were fitted with a sigmoidal function to yield an IC50 and Hill coefficient. Composition of external experimental buffer was (in mM): 40 NaCl, 100 KCl, 5 CaCl2, 1 MgCl2, 10 HEPES pH 7.4. Composition of internal solution was (in mM). 40 K-gluconate, 60 KF, 20 NaCl, 5 Mg-ATP, 0.9 GTPgS, 20 EGTA, pH 7.2. Compounds were formulated in DMSO and diluted in buffer to give a final drug concentration of between […] and a final DMSO concentration of 0.1-0.3%.

Kir3.1/3.4 [2] = target: T1, Kir3.1/3.4; assay: Kir3.1/3.4 Electrophysiology Method (manual whole-cell patch clamp); assay type: cell-based; settings: Electrophysiology Method (TABLE 1)
How it was run: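 Percent inhibition is relative to the pre-drug current, both leak-subtracted using a potassium-free bather, taken as the mean current at −140 mV. The protocol was a step to +60 mV, a ramp to −140 mV, then a return to −60 mV holding, every 10 s. Cells were rat Kir3.1/3.4-transfected HEK293 recorded by whole-cell patch clamp.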

Compound: NC(=O)C1CN(c2nc(N3C4CCC3COC4)nc3scc(-c4ccccc4Cl)c23)CCN1 (stereo not shown) [Example 417, 4-[5-(2-chlorophenyl)-2-(3-oxa-8-azabicyclo[3.2.1]octan-8-yl)thieno[2,3-d]pyrimidin-4-yl]piperazine-2-carboxamide]
IC50 (Kir3.1/3.4 [1]): 500 to 3000 nM

Compound: COCC1CC2CCC(C1)N2c1nc(N2C3CCC2COC3)c2c(-c3ccccc3OC)csc2n1 (stereo not shown) [Example 395, 8-[2-[3-(methoxymethyl)-8-azabicyclo[3.2.1]octan-8-yl]-5-(2-methoxyphenyl)thieno[2,3-d]pyrimidin-4-yl]-3-oxa-8-azabicyclo[3.2.1]octane]
IC50 (Kir3.1/3.4 [1]): 500 to 3000 nM

Compound: COc1ccccc1-c1csc2nc(N3CCNC(C(N)=O)C3)nc(N3C4CCC3CC(OC)C4)c12 (stereo not shown) [Example 394, 4-[4-(3-methoxy-8-azabicyclo[3.2.1]octan-8-yl)-5-(2-methoxyphenyl)thieno[2,3-d]pyrimidin-2-yl]piperazine-2-carboxamide]
IC50 (Kir3.1/3.4 [1]): < 500 nM

Compound: NC(=O)C1CCN(c2nc(N3C4CCC3CC(O)C4)nc3scc(-c4ccccc4Cl)c23)C1 (stereo not shown) [Example 412, 1-[5-(2-chlorophenyl)-2-(3-hydroxy-8-azabicyclo[3.2.1]octan-8-yl)thieno[2,3-d]pyrimidin-4-yl]pyrrolidine-3-carboxamide]
IC50 (Kir3.1/3.4 [1]): 500 to 3000 nM

Compound: O=C1CN(c2nc(N3C4CCC3COC4)c3c(-c4ccccc4Cl)csc3n2)CCN1 [Example 424, 4-[5-(2-chlorophenyl)-4-(3-oxa-8-azabicyclo[3.2.1]octan-8-yl)thieno[2,3-d]pyrimidin-2-yl]piperazin-2-one]
IC50 (Kir3.1/3.4 [1]): < 500 nM

Compound: COc1ncccc1-c1csc2ncnc(N3C4CCC3CC(CNC3CCC3)C4)c12 (stereo not shown) [Example 427, N-[[8-[5-(2-methoxy-3-pyridyl)thieno[2,3-d]pyrimidin-4-yl]-8-azabicyclo[3.2.1]octan-3-yl]methyl]cyclobutanamine]
IC50 (Kir3.1/3.4 [1]): < 500 nM

Compound: COc1ccccc1-c1csc2nc(N3C4CCC3COC4)nc(N3CCOC(C(N)=O)C3)c12 (stereo not shown) [Example 419, 4-[5-(2-methoxyphenyl)-2-(3-oxa-8-azabicyclo[3.2.1]octan-8-yl)thieno[2,3-d]pyrimidin-4-yl]morpholine-2-carboxamide]
IC50 (Kir3.1/3.4 [1]): < 500 nM

Compound: COc1ccccc1-c1csc2nc(N3C4CCC3CC(OC)C4)nc(N3C4CCC3CC(OC)C4)c12 (stereo not shown) [Example 407, 2,4-bis(3-methoxy-8-azabicyclo[3.2.1]octan-8-yl)-5-(2-methoxyphenyl)thieno[2,3-d]pyrimidine]
IC50 (Kir3.1/3.4 [1]): 500 to 3000 nM

Compound: COc1ccccc1-c1csc2nc(N3C4CCC3CC(OC)C4)nc(N3C4CCC3COC4)c12 (stereo not shown) [Example 397, 8-[2-(3-methoxy-8-azabicyclo[3.2.1]octan-8-yl)-5-(2-methoxyphenyl)thieno[2,3-d]pyrimidin-4-yl]-3-oxa-8-azabicyclo[3.2.1]octane]
IC50 (Kir3.1/3.4 [1]): < 500 nM

Compound: COc1ccccc1-c1csc2nc(N3C4CCC3COC4)nc(N3C4CCC3CC(OC)C4)c12 (stereo not shown) [Example 379, 8-[4-(3-methoxy-8-azabicyclo[3.2.1]octan-8-yl)-5-(2-methoxyphenyl)thieno[2,3-d]pyrimidin-2-yl]-3-oxa-8-azabicyclo[3.2.1]octane]
IC50 (Kir3.1/3.4 [1]): 500 to 3000 nM

Compound: COc1ccccc1-c1csc2nc(N3C4CCC3COC4)nc(N3C4CCC3COC4)c12 [Example 402, 8-[5-(2-methoxyphenyl)-2-(3-oxa-8-azabicyclo[3.2.1]octan-8-yl)thieno[2,3-d]pyrimidin-4-yl]-3-oxa-8-azabicyclo[3.2.1]octane]
IC50 (Kir3.1/3.4 [1]): 500 to 3000 nM

Compound: COc1ccccc1-c1csc2nc(N3CCOC(C(N)=O)C3)nc(N3C4CCC3COC4)c12 (stereo not shown) [Example 418, 4-[5-(2-methoxyphenyl)-4-(3-oxa-8-azabicyclo[3.2.1]octan-8-yl)thieno[2,3-d]pyrimidin-2-yl]morpholine-2-carboxamide]
IC50 (Kir3.1/3.4 [1]): 500 to 3000 nM

Compound: Clc1ccccc1-c1csc2nc(N3C4CCC3COC4)nc(N3C4CCC3COC4)c12 [Example 423, 8-[5-(2-chlorophenyl)-2-(3-oxa-8-azabicyclo[3.2.1]octan-8-yl)thieno[2,3-d]pyrimidin-4-yl]-3-oxa-8-azabicyclo[3.2.1]octane]
IC50 (Kir3.1/3.4 [1]): 500 to 3000 nM

Compound: NC(=O)C1CN(c2nc(N3C4CCC3COC4)c3c(-c4ccccc4Cl)csc3n2)CCO1 (stereo not shown) [Example 420, 4-[5-(2-chlorophenyl)-4-(3-oxa-8-azabicyclo[3.2.1]octan-8-yl)thieno[2,3-d]pyrimidin-2-yl]morpholine-2-carboxamide]
IC50 (Kir3.1/3.4 [1]): < 500 nM

Compound: NC(=O)C1CCN(c2nc(N3C4CCC3COC4)nc3scc(-c4ccccc4Cl)c23)C1 (stereo not shown) [Example 415, 1-[5-(2-chlorophenyl)-2-(3-oxa-8-azabicyclo[3.2.1]octan-8-yl)thieno[2,3-d]pyrimidin-4-yl]pyrrolidine-3-carboxamide]
IC50 (Kir3.1/3.4 [1]): 500 to 3000 nM

Compound: COc1ccccc1-c1csc2nc(N3C4CCC3CC(O)C4)nc(N3C4CCC3CC(OC)C4)c12 (stereo not shown) [Example 377, 8-[4-(3-methoxy-8-azabicyclo[3.2.1]octan-8-yl)-5-(2-methoxyphenyl)thieno[2,3-d]pyrimidin-2-yl]-8-azabicyclo[3.2.1]octan-3-ol]
IC50 (Kir3.1/3.4 [1]): 500 to 3000 nM

Compound: COc1ccccc1-c1csc2nc(N3C4CCC3CC(O)C4)nc(N3C4CCC3COC4)c12 (stereo not shown) [Example 400, 8-[5-(2-methoxyphenyl)-4-(3-oxa-8-azabicyclo[3.2.1]octan-8-yl)thieno[2,3-d]pyrimidin-2-yl]-8-azabicyclo[3.2.1]octan-3-ol]
IC50 (Kir3.1/3.4 [1]): 500 to 3000 nM

Compound: COC1CC2CCC(C1)N2c1nc(N2CCOC(C(N)=O)C2)nc2scc(-c3ccccc3Cl)c12 (stereo not shown) [Example 408, 4-[5-(2-chlorophenyl)-4-(3-methoxy-8-azabicyclo[3.2.1]octan-8-yl)thieno[2,3-d]pyrimidin-2-yl]morpholine-2-carboxamide]
IC50 (Kir3.1/3.4 [1]): < 500 nM

Compound: COc1ccccc1-c1csc2nc(N3CCNC(=O)C3)nc(N3C4CCC3CC(OC)C4)c12 (stereo not shown) [Example 380, 4-[4-(3-methoxy-8-azabicyclo[3.2.1]octan-8-yl)-5-(2-methoxyphenyl)thieno[2,3-d]pyrimidin-2-yl]piperazin-2-one]
IC50 (Kir3.1/3.4 [1]): < 500 nM

Compound: COc1ccccc1-c1csc2nc(N3CCC(C(N)=O)C3)nc(N3C4CCC3COC4)c12 (stereo not shown) [Example 401, 1-[5-(2-methoxyphenyl)-4-(3-oxa-8-azabicyclo[3.2.1]octan-8-yl)thieno[2,3-d]pyrimidin-2-yl]pyrrolidine-3-carboxamide]
IC50 (Kir3.1/3.4 [1]): 500 to 3000 nM

Compound: COc1ccccc1-c1csc2nc(N3C4CCC3CC(O)C4)nc(N3CCC(C(N)=O)C3)c12 (stereo not shown) [Example 414, 1-[2-(3-hydroxy-8-azabicyclo[3.2.1]octan-8-yl)-5-(2-methoxyphenyl)thieno[2,3-d]pyrimidin-4-yl]pyrrolidine-3-carboxamide]
IC50 (Kir3.1/3.4 [1]): 500 to 3000 nM

Compound: COC1CC2CCC(C1)N2c1nc(N2CCCC(C(N)=O)C2)nc2scc(-c3ccccc3Cl)c12 (stereo not shown) [Example 373, 1-[5-(2-chlorophenyl)-4-(3-methoxy-8-azabicyclo[3.2.1]octan-8-yl)thieno[2,3-d]pyrimidin-2-yl]piperidine-3-carboxamide]
IC50 (Kir3.1/3.4 [1]): < 500 nM

Compound: COc1ccccc1-c1csc2nc(N3CCCC(C(N)=O)C3)nc(N3C4CCC3CC(OC)C4)c12 (stereo not shown) [Example 390, 1-[4-(3-methoxy-8-azabicyclo[3.2.1]octan-8-yl)-5-(2-methoxyphenyl)thieno[2,3-d]pyrimidin-2-yl]piperidine-3-carboxamide]
IC50 (Kir3.1/3.4 [1]): 500 to 3000 nM

IC50 (Kir3.1/3.4 [2]): < 500 nM
Compound: c1ccc(-c2csc3ncnc(N4CCC(COc5cccnc5)CC4)c23)cc1 [Example 180]

IC50 (Kir3.1/3.4 [2]): 500 to 3000 nM
Compound: CC(C)OCC1CCN(c2ncnc3scc(-c4ccccc4)c23)CC1 [Example 15, 4-[4-(isopropoxymethyl)-1-piperidyl]-5-phenyl-thieno[2,3-d]pyrimidine]
